In one assay the test system is ASPC1. As to the kind of experiment: Antiproliferative activity against human ASPC1 cells harbouring KRAS G12D mutant assessed as reduction in cell viability incubated for 72 hrs. In kind it is functional, cell-based.
In another assay the test system is SW-620. As to the kind of experiment: Antiproliferative activity against human SW620 cells harbouring KRAS G12V mutant assessed as inhibition of cell growth incubated for 72 hrs by Luminescence based assay. In kind it is functional. The settings on record: SW-620, 72 h.
The subject of assay [1] is GTPase KRas (Homo sapiens), P01116 [G12D]. As to the kind of experiment: Inhibition of KRas G12D mutant in human ASPC1 cells assessed as assessed as downregulation of DUSP4 at 0.05 to 300 nM incubated for 3 hrs by Western blot analysis. In kind it is cell-based. The settings on record: dose 0.05-300 nM.
In assay [2] the target is T1, GTPase KRas (Homo sapiens, UniProt P01116, G12D). As to the kind of experiment: Inhibition of KRas G12D mutant in human SW620 cells assessed as inhibition of ERK phosphorylation at Thr202/Tyr204 residues incubated for 3 hrs by Western blot analysis. It counts as cell-based.
Assay [3] deals with T1, GTPase KRas. As to the kind of experiment: Inhibition of KRas G12D mutant in human ASPC1 cells assessed as inhibition of ERK phosphorylation at Thr202/Tyr204 residues incubated for 3 hrs by Western blot analysis. In kind it is cell-based. For orientation: In western blotting, separated proteins are transferred to a membrane and probed.
Another assay deals with HT-29. As to the kind of experiment: Antiproliferative activity against human HT-29 cells harbouring wild-type KRAS assessed as cell growth inhibition by CellTiter-Glo assay. In kind it is functional, cell-based. For orientation: Cellular ATP, detected with luciferase, serves as a proxy for viable cell number.

Calls of active or inactive are those of the source. The rule behind the calls is not given here.

One may read the IC50 as the midpoint of a concentration-inhibition curve. Consider `Nc1nc2c(-c3c(Cl)cc4c(N5CCCOCC5)nc(OC[C@@]56CCCN5C[C@H](F)C6)nc4c3F)ccc(F)c2s1`, for which the IC50 in the assay on ASPC1 (Homo sapiens, ASPC1, 72 h) was found to be 8240 nM; in the assay with SW-620 it was 208 nM.
For `N#Cc1c(N)sc2c(F)ccc(-c3c(Cl)c4c5c(nc(OC[C@@]67CCCN6C[C@H](F)C7)nc5c3F)N3CCCCC[C@@H]3CO4)c12`, the IC50 in the assay on ASPC1 (Homo sapiens, ASPC1, 72 h) came to 3250 nM; in the assay on SW-620 it was 347 nM.
For `Nc1nc2c(-c3c(Cl)c4c5c(nc(OC[C@@]67CCCN6C[C@H](F)C7)nc5c3F)N3CCCOC[C@H]3CO4)ccc(F)c2s1`, in that order: 1920 nM and 22.6 nM.
In the case of `N#Cc1c(N)sc2c(F)ccc(-c3c(Cl)c4c5c(nc(OC[C@@]67CCCN6C[C@H](F)C7)nc5c3F)N3CCCOC[C@H]3CO4)c12` (single isomer, unassigned; atropisomer 2) [listing 1 of 2 here], the outcome in assay [1] was Active.
As for `N#Cc1c(N)sc2c(F)ccc(-c3c(Cl)c4c5c(nc(OC[C@@]67CCCN6C[C@H](F)C7)nc5c3F)N3CCCOC[C@H]3CO4)c12` (single isomer, unassigned; atropisomer 2) [listing 2 of 2 here], the IC50 on GTPase KRas [2] turned out to be 1 nM; in the assay on ASPC1 (aspc1) it was 378 nM; on GTPase KRas [3] it was 0.6 nM; in the assay on SW-620, 0.6 nM; in the assay on HT-29, 3230 nM.
On to `N#Cc1c(N)sc2c(F)ccc(-c3c(Cl)c4c5c(nc(OC[C@@]67CCCN6C[C@H](F)C7)nc5c3F)N3CCCOC[C@H]3CO4)c12` (single isomer, unassigned; atropisomer 1), for which the half-inhibitory concentration (IC50) in the assay on ASPC1 (aspc1) came to 8780 nM.
Consider `N#Cc1c(N)sc2c(F)ccc(-c3c(Cl)c4c5c(nc(OC[C@@]67CCCN6C[C@H](F)C7)nc5c3F)N3CCCCCC3CO4)c12` (single isomer, unassigned; atropisomer 2), for which the IC50 in the assay with ASPC1 (aspc1) came to 713 nM; with SW-620 it was 4.4 nM.
With `N#Cc1c(N)sc2c(F)ccc(-c3c(Cl)c4c5c(nc(OC[C@@]67CCCN6C[C@H](F)C7)nc5c3F)N3CCCCCC3CO4)c12` (single isomer, unassigned; atropisomer 1), in the assay on ASPC1 (aspc1), the IC50 was 4000 nM.
Take `Nc1nc2c(-c3c(Cl)c4c5c(nc(OC[C@@]67CCCN6C[C@H](F)C7)nc5c3F)N3CCCCCC3CO4)ccc(F)c2s1` (stereo not given in full): the IC50 was found to be 1150 nM with ASPC1 (Homo sapiens, ASPC1, 72 h) and 151 nM with SW-620.
With `N#Cc1c(N)sc2c(F)ccc(-c3c(Cl)c4c5c(nc(OC[C@@]67CCCN6C[C@H](F)C7)nc5c3F)N3CCCCC[C@H]3CO4)c12`, the IC50 with ASPC1 (Homo sapiens, ASPC1, 72 h) was 354 nM; in the assay with SW-620 it was 2.6 nM.

The values are drawn from ChEMBL document CHEMBL6109034, “Discovery of novel tetracyclic quinazolines as multi-KRASinhibitors for the treatment of solid tumors” (Bioorg Med Chem Lett, 2025).
